What was measured:
[1] = test system: GCT cell lines; assay: XTT cell viability assay, GCT cell lines (pre-screen / summary); format: cell-based, Human; conditions: first pre-screen, XTT; read-out: EC50
How it was run: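 Cells (5 × 10^3 per well) are plated on day 0, then treated on day 1 with graded drug doses or vehicle. XTT conversion gives viability, from which EC50 is derived.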

[2] = test system: histone modifications in 2102EP cells; assay: Mass spectrometry analysis of histone modifications (Mod Spec); format: cell-based, Human
How it was run: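 2102EP cells were treated for 16 h with EC50 concentrations of Quisinostat, JIB-04, Chaetocin, MZ-1, LP99, PRT4165 or GSK343, with DMSO as solvent control. After trypsin harvest, histones were extracted and analysed by mass spectrometry. Raw data were converted to z-scores.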

[3] = 2102EP cells, Mod Spec raw data
[4] = 2102EP, EC50, 16 h, vs solvent control

O=C1C(=Cc2cccnc2)C(=O)c2ccccc21 [PRT4165]
EC50 [1]: ≤ 50 µM
H1.4: K25AC, % of peptide pool [2, 3]: 0.05173%
H1.4: K25ME1, % of peptide pool [2, 3]: 2.298%
H1.4: K25ME2, % of peptide pool [2, 3]: 0.1042%
H1.4: K25ME3, % of peptide pool [2, 3]: 0.02395%
H1.4: K25UN, % of peptide pool [2, 3]: 97.522%
H2A1: K13AC, % of peptide pool [2, 3]: 0.008344%
H2A1: K13UN, % of peptide pool [2, 3]: 99.9917%
H2A1: K15AC, % of peptide pool [2, 3]: 0.002728%
H2A1: K15UB, % of peptide pool [2, 3]: 0%
H2A1: K15UN, % of peptide pool [2, 3]: 99.9973%
H2A3: K13AC, % of peptide pool [2, 3]: 0.03698%
H2A3: K13UN, % of peptide pool [2, 3]: 99.963%
H2A3: K15AC, % of peptide pool [2, 3]: 0.08285%
H2A3: K15UB, % of peptide pool [2, 3]: 0%
H2A3: K15UN, % of peptide pool [2, 3]: 99.9171%
H2A: K5AC, % of peptide pool [2, 3]: 15.4182%
H2A: K5UN, % of peptide pool [2, 3]: 84.5818%
H2A: K9AC, % of peptide pool [2, 3]: 1.95%
H2A: K9UN, % of peptide pool [2, 3]: 98.0496%
H2A: K36AC, % of peptide pool [2, 3]: 0.05592%
H2A: K36UN, % of peptide pool [2, 3]: 99.9441%
H3: K9AC, % of peptide pool [2, 3]: 0.7791%
H3: K9ME1, % of peptide pool [2, 3]: 33.7783%
H3: K9ME2, % of peptide pool [2, 3]: 30.8531%
H3: K9ME3, % of peptide pool [2, 3]: 3.071%
H3: K9UN, % of peptide pool [2, 3]: 31.5183%
H3: K14AC, % of peptide pool [2, 3]: 32.0961%
H3: K14UN, % of peptide pool [2, 3]: 67.9039%
H3: K18AC, % of peptide pool [2, 3]: 12.9985%
H3: K18ME1, % of peptide pool [2, 3]: 0.1614%
H3: K18UN, % of peptide pool [2, 3]: 86.8401%
H3: K23AC, % of peptide pool [2, 3]: 19.4498%
H3: K23ME1, % of peptide pool [2, 3]: 0.05975%
H3: K23UN, % of peptide pool [2, 3]: 80.4904%
H3: K56AC, % of peptide pool [2, 3]: 0.4117%
H3: K56ME1, % of peptide pool [2, 3]: 1.0746%
H3: K56UN, % of peptide pool [2, 3]: 98.5137%
H3: K64AC, % of peptide pool [2, 3]: 0.02258%
H3: K64UN, % of peptide pool [2, 3]: 99.9774%
H3: K79AC, % of peptide pool [2, 3]: 3.311%
H3: K79ME1, % of peptide pool [2, 3]: 23.508%
H3: K79ME2, % of peptide pool [2, 3]: 7.992%
H3: K79ME3, % of peptide pool [2, 3]: 11.4561%
H3: K79UN, % of peptide pool [2, 3]: 53.7325%
H3: K122AC, % of peptide pool [2, 3]: 0.1739%
H3: K122UN, % of peptide pool [2, 3]: 99.8261%
H3: Q19ME1, % of peptide pool [2, 3]: 0.01555%
H3: Q19UN, % of peptide pool [2, 3]: 99.9844%
H3: Q55ME1, % of peptide pool [2, 3]: 0.5287%
H3: Q55UN, % of peptide pool [2, 3]: 99.4713%
H3: R42ME2, % of peptide pool [2, 3]: 2.978%
H3: R42UN, % of peptide pool [2, 3]: 97.0223%
H3: R49ME2, % of peptide pool [2, 3]: 9.973%
H3: R49UN, % of peptide pool [2, 3]: 90.0271%
H3R2UN: K4AC, % of peptide pool [2, 3]: 0.1986%
H3R2UN: K4ME1, % of peptide pool [2, 3]: 18.1935%
H3R2UN: K4ME2, % of peptide pool [2, 3]: 0.2356%
H3R2UN: K4ME3, % of peptide pool [2, 3]: 0.09008%
H3R2UN: K4UN, % of peptide pool [2, 3]: 81.2822%
H3R2UN: Q5ME1, % of peptide pool [2, 3]: 0.1103%
H3R2UN: Q5UN, % of peptide pool [2, 3]: 99.8897%
H3.1: K27AC, % of peptide pool [2, 3]: 2.4319%
H3.1: K27ME1, % of peptide pool [2, 3]: 48.1679%
H3.1: K27ME2, % of peptide pool [2, 3]: 21.916%
H3.1: K27ME3, % of peptide pool [2, 3]: 3.429%
H3.1: K27UN, % of peptide pool [2, 3]: 24.0551%
H3.1: K36AC, % of peptide pool [2, 3]: 0.4356%
H3.1: K36ME1, % of peptide pool [2, 3]: 14.9062%
H3.1: K36ME2, % of peptide pool [2, 3]: 45.0841%
H3.1: K36ME3, % of peptide pool [2, 3]: 22.3724%
H3.1: K36UN, % of peptide pool [2, 3]: 17.2016%
H3.3: K27AC, % of peptide pool [2, 3]: 6.482%
H3.3: K27M, % of peptide pool [2, 3]: 0%
H3.3: K27ME1, % of peptide pool [2, 3]: 46.8114%
H3.3: K27ME2, % of peptide pool [2, 3]: 16.0905%
H3.3: K27ME3, % of peptide pool [2, 3]: 6.139%
H3.3: K27UN, % of peptide pool [2, 3]: 24.4778%
H3.3: K36AC, % of peptide pool [2, 3]: 3.39%
H3.3: K36ME1, % of peptide pool [2, 3]: 13.3786%
H3.3: K36ME2, % of peptide pool [2, 3]: 45.5834%
H3.3: K36ME3, % of peptide pool [2, 3]: 23.7392%
H3.3: K36UN, % of peptide pool [2, 3]: 13.9089%
H4: K5AC, % of peptide pool [2, 3]: 8.039%
H4: K5UN, % of peptide pool [2, 3]: 91.9614%
H4: K8AC, % of peptide pool [2, 3]: 12.3075%
H4: K8UN, % of peptide pool [2, 3]: 87.6925%
H4: K12AC, % of peptide pool ([2]; 2102EP cells, Mod Spec raw data, histone H4 K12 acetylated): 6.955 % of peptide pool
H4: K12UN, % of peptide pool ([2]; 2102EP cells, Mod Spec raw data, histone H4 K12 unmodified): 93.045 % of peptide pool
H4: K16AC, % of peptide pool ([2]; 2102EP cells, Mod Spec raw data, histone H4 K16 acetylated): 45.5782 % of peptide pool
H4: K16UN, % of peptide pool ([2]; 2102EP cells, Mod Spec raw data, histone H4 K16 unmodified): 54.4218 % of peptide pool
H4: K20AC, % of peptide pool ([2]; 2102EP cells, Mod Spec raw data, histone H4 K20 acetylated): 32.1833 % of peptide pool
H4: K20ME2, % of peptide pool ([2]; 2102EP cells, Mod Spec raw data, histone H4 K20 dimethylated): 44.5336 % of peptide pool
H4: K20ME1, % of peptide pool ([2]; 2102EP cells, Mod Spec raw data, histone H4 K20 monomethylated): 4.33 % of peptide pool
H4: K20ME3, % of peptide pool ([2]; 2102EP cells, Mod Spec raw data, histone H4 K20 trimethylated): 2.102 % of peptide pool
H4: K20UN, % of peptide pool ([2]; 2102EP cells, Mod Spec raw data, histone H4 K20 unmodified): 16.8517 % of peptide pool
change of histone modifications of the expected mode of action (Mod Spec) [2, 4]: decreased ubiquitination (ub) of the target histone H2AK119 [50] could not be detected
off-target changes of histone modifications (Mod Spec) [2, 4]: increase of H3K36me3, H4K20ac, H3K79me1/ac

Source: publication PMC8742467, “Therapeutical interference with the epigenetic landscape of germ cell tumors: a comparative drug study and new mechanistical insights” (Clinical Epigenetics, 2022)
